In PubChem BioAssay AID2060614 (Molecular Pharmacology Branch, DTP, NCI, 2025):

Test system: 598228-144-R-J1-PDC complex spheroids, viability
Assay: Anticancer human tumor 598228-144-R-J1-PDC patient-derived serous endometrial adenocarcinoma cell line growth inhibition [CLK]
Details: for IC50: curve of first compound; for viability, T/C: stronger effect = lower value
Summary of the method: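 Patient-derived tumor cells grown as complex spheroids with HUVEC endothelial cells and mesenchymal stem cells, treated with drug combinations. Concentrations descend in half-log steps from near clinical Cmax, or from 10 microM if Cmax unknown.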

[1] = second compound 0.0316 µM, first compound 0.00949 µM
[2] = second compound 0.0316 µM, first compound 0.03 µM
[3] = second compound 0.0316 µM, first compound 0.0949 µM
[4] = second compound 0.0316 µM, first compound 0.3 µM
[5] = second compound 0.1 µM, first compound 0.00949 µM
[6] = second compound 0.1 µM, first compound 0.03 µM
[7] = second compound 0.1 µM, first compound 0.0949 µM
[8] = second compound 0.1 µM, first compound 0.3 µM
[9] = second compound 0.316 µM, first compound 0.00949 µM
[10] = second compound 0.316 µM, first compound 0.03 µM
[11] = second compound 0.316 µM, first compound 0.0949 µM
[12] = second compound 0.316 µM, first compound 0.3 µM
[13] = second compound 1 µM, first compound 0.00949 µM
[14] = second compound 1 µM, first compound 0.03 µM
[15] = second compound 1 µM, first compound 0.0949 µM
[16] = second compound 1 µM, first compound 0.3 µM
[17] = second compound 3.16 µM, first compound 0.00949 µM
[18] = second compound 3.16 µM, first compound 0.03 µM
[19] = second compound 3.16 µM, first compound 0.0949 µM
[20] = second compound 3.16 µM, first compound 0.3 µM
[21] = second compound 10 µM, first compound 0.00949 µM
[22] = second compound 10 µM, first compound 0.03 µM
[23] = second compound 10 µM, first compound 0.0949 µM
[24] = second compound 10 µM, first compound 0.3 µM
[25] = second compound 0.0316 µM, first compound 0.0316 µM
[26] = second compound 0.0316 µM, first compound 0.1 µM
[27] = second compound 0.0316 µM, first compound 0.316 µM
[28] = second compound 0.0316 µM, first compound 1 µM
[29] = second compound 0.0316 µM, first compound 3.16 µM
[30] = second compound 0.0316 µM, first compound 10 µM
[31] = second compound 0.1 µM, first compound 0.0316 µM
[32] = second compound 0.1 µM, first compound 0.1 µM
[33] = second compound 0.1 µM, first compound 0.316 µM
[34] = second compound 0.1 µM, first compound 1 µM
[35] = second compound 0.1 µM, first compound 3.16 µM
[36] = second compound 0.1 µM, first compound 10 µM
[37] = second compound 0.316 µM, first compound 0.0316 µM
[38] = second compound 0.316 µM, first compound 0.1 µM
[39] = second compound 0.316 µM, first compound 0.316 µM
[40] = second compound 0.316 µM, first compound 1 µM
[41] = second compound 0.316 µM, first compound 3.16 µM
[42] = second compound 0.316 µM, first compound 10 µM
[43] = second compound 1 µM, first compound 0.0316 µM
[44] = second compound 1 µM, first compound 0.1 µM
[45] = second compound 1 µM, first compound 0.316 µM
[46] = second compound 1 µM, first compound 1 µM
[47] = second compound 1 µM, first compound 3.16 µM
[48] = second compound 1 µM, first compound 10 µM
[49] = second compound 3.16 µM, first compound 0.0316 µM
[50] = second compound 3.16 µM, first compound 0.1 µM
[51] = second compound 3.16 µM, first compound 0.316 µM
[52] = second compound 3.16 µM, first compound 1 µM
[53] = second compound 3.16 µM, first compound 3.16 µM
[54] = second compound 3.16 µM, first compound 10 µM
[55] = second compound 10 µM, first compound 0.0316 µM
[56] = second compound 10 µM, first compound 0.1 µM
[57] = second compound 10 µM, first compound 0.316 µM
[58] = second compound 10 µM, first compound 1 µM
[59] = second compound 10 µM, first compound 3.16 µM
[60] = second compound 10 µM, first compound 10 µM
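Note: spheroids exposed to compounds for seven days before readout.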
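Throughout, for viability, T/C: 100% = DMSO vehicle control wells.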

Structure (SMILES): C=CC(=O)Nc1cc(Nc2nccc(-c3cn(C)c4ccccc34)n2)c(OC)cc1N(C)CCN(C)C + CNC(=O)c1ccc(Nc2nc(OC3CCCC3)c3c(-c4ccc5nc(C)oc5c4)c[nH]c3n2)c(OC)c1
- IC50 (second compound 0.0316 µM): > 300 nM
- IC50 (second compound 0.1 µM): > 300 nM
- IC50 (second compound 0.316 µM): > 300 nM
- IC50 (second compound 1 µM): > 300 nM
- IC50 (second compound 3.16 µM): > 300 nM
- IC50 (second compound 10 µM): > 300 nM
- viability, T/C (second compound 0.0316 µM, first compound 0.000949 µM): 124%
- viability, T/C (second compound 0.0316 µM, first compound 0.003 µM): 113%
- viability, T/C [1]: 107%
- viability, T/C [2]: 115%
- viability, T/C [3]: 101%
- viability, T/C [4]: 105%
- viability, T/C (second compound 0.1 µM, first compound 0.000949 µM): 120%
- viability, T/C (second compound 0.1 µM, first compound 0.003 µM): 103%
- viability, T/C [5]: 104%
- viability, T/C [6]: 104%
- viability, T/C [7]: 103%
- viability, T/C [8]: 78.3%
- viability, T/C (second compound 0.316 µM, first compound 0.000949 µM): 112%
- viability, T/C (second compound 0.316 µM, first compound 0.003 µM): 109%
- viability, T/C [9]: 120%
- viability, T/C [10]: 93.5%
- viability, T/C [11]: 96.5%
- viability, T/C [12]: 77.7%
- viability, T/C (second compound 1 µM, first compound 0.000949 µM): 104%
- viability, T/C (second compound 1 µM, first compound 0.003 µM): 90.3%
- viability, T/C [13]: 90.5%
- viability, T/C [14]: 99%
- viability, T/C [15]: 91.2%
- viability, T/C [16]: 94.1%
- viability, T/C (second compound 3.16 µM, first compound 0.000949 µM): 101%
- viability, T/C (second compound 3.16 µM, first compound 0.003 µM): 102%
- viability, T/C [17]: 80.9%
- viability, T/C [18]: 87.6%
- viability, T/C [19]: 82.7%
- viability, T/C [20]: 62.3%
- viability, T/C (second compound 10 µM, first compound 0.000949 µM): 86.5%
- viability, T/C (second compound 10 µM, first compound 0.003 µM): 86.4%
- viability, T/C [21]: 86.3%
- viability, T/C [22]: 73.1%
- viability, T/C [23]: 77.5%
- viability, T/C [24]: 60.7%

Structure (SMILES): CC1(C)CCC(CN2CCN(c3ccc(C(=O)NS(=O)(=O)c4ccc(NCC5CCOCC5)c([N+](=O)[O-])c4)c(Oc4cnc5[nH]ccc5c4)c3)CC2)=C(c2ccc(Cl)cc2)C1 + CNC(=O)c1ccc(Nc2nc(OC3CCCC3)c3c(-c4ccc5nc(C)oc5c4)c[nH]c3n2)c(OC)c1
- IC50 (second compound 0.0316 µM): 7050 nM
- IC50 (second compound 0.1 µM): 6440 nM
- IC50 (second compound 0.316 µM): 6420 nM
- IC50 (second compound 1 µM): 6640 nM
- IC50 (second compound 3.16 µM): 6110 nM
- IC50 (second compound 10 µM): 6420 nM
- viability, T/C [25]: 96.4%
- viability, T/C [26]: 116%
- viability, T/C [27]: 105%
- viability, T/C [28]: 96.5%
- viability, T/C [29]: 100%
- viability, T/C [30]: 28.1%
- viability, T/C [31]: 105%
- viability, T/C [32]: 97.6%
- viability, T/C [33]: 103%
- viability, T/C [34]: 99.4%
- viability, T/C [35]: 99.4%
- viability, T/C [36]: 19.5%
- viability, T/C [37]: 106%
- viability, T/C [38]: 104%
- viability, T/C [39]: 98.5%
- viability, T/C [40]: 103%
- viability, T/C [41]: 105%
- viability, T/C [42]: 16.6%
- viability, T/C [43]: 106%
- viability, T/C [44]: 99.9%
- viability, T/C [45]: 96.5%
- viability, T/C [46]: 95.4%
- viability, T/C [47]: 99.2%
- viability, T/C [48]: 22.8%
- viability, T/C [49]: 99.1%
- viability, T/C [50]: 91.1%
- viability, T/C [51]: 79.9%
- viability, T/C [52]: 84.3%
- viability, T/C [53]: 89.3%
- viability, T/C [54]: 21%
- viability, T/C [55]: 86.3%
- viability, T/C [56]: 89%
- viability, T/C [57]: 83.3%
- viability, T/C [58]: 81.2%
- viability, T/C [59]: 97.6%
- viability, T/C [60]: 26.6%

Structure (SMILES): NC(=O)C(=Cn1cnc(-c2cc(C(F)(F)F)cc(C(F)(F)F)c2)n1)c1cncnc1 + CNC(=O)c1ccc(Nc2nc(OC3CCCC3)c3c(-c4ccc5nc(C)oc5c4)c[nH]c3n2)c(OC)c1
- IC50 (second compound 0.0316 µM): 362 nM
- IC50 (second compound 0.1 µM): 525 nM
- IC50 (second compound 0.316 µM): 644 nM
- IC50 (second compound 1 µM): 467 nM
- IC50 (second compound 3.16 µM): 301 nM
- IC50 (second compound 10 µM): 160 nM
- viability, T/C [1]: 110%
- viability, T/C [2]: 97.5%
- viability, T/C [3]: 93.9%
- viability, T/C [4]: 53.3%
- viability, T/C (second compound 0.0316 µM, first compound 0.949 µM): 30.1%
- viability, T/C (second compound 0.0316 µM, first compound 3 µM): 25.7%
- viability, T/C [5]: 101%
- viability, T/C [6]: 99.8%
- viability, T/C [7]: 97.9%
- viability, T/C [8]: 63.8%
- viability, T/C (second compound 0.1 µM, first compound 0.949 µM): 36.4%
- viability, T/C (second compound 0.1 µM, first compound 3 µM): 28.7%
- viability, T/C [9]: 88.1%
- viability, T/C [10]: 95.9%
- viability, T/C [11]: 82.3%
- viability, T/C [12]: 64%
- viability, T/C (second compound 0.316 µM, first compound 0.949 µM): 43.5%
- viability, T/C (second compound 0.316 µM, first compound 3 µM): 18.2%
- viability, T/C [13]: 97.5%
- viability, T/C [14]: 97.3%
- viability, T/C [15]: 85%
- viability, T/C [16]: 55.4%
- viability, T/C (second compound 1 µM, first compound 0.949 µM): 37.1%
- viability, T/C (second compound 1 µM, first compound 3 µM): 10.4%
- viability, T/C [17]: 96.8%
- viability, T/C [18]: 73.6%
- viability, T/C [19]: 68.2%
- viability, T/C [20]: 54.3%
- viability, T/C (second compound 3.16 µM, first compound 0.949 µM): 30%
- viability, T/C (second compound 3.16 µM, first compound 3 µM): 10.9%
- viability, T/C [21]: 88.1%
- viability, T/C [22]: 72.3%
- viability, T/C [23]: 58.7%
- viability, T/C [24]: 42%
- viability, T/C (second compound 10 µM, first compound 0.949 µM): 19.6%
- viability, T/C (second compound 10 µM, first compound 3 µM): 4.93%

Structure (SMILES): Nc1ccccc1NC(=O)c1ccc(CNC(=O)OCc2cccnc2)cc1 + CNC(=O)c1ccc(Nc2nc(OC3CCCC3)c3c(-c4ccc5nc(C)oc5c4)c[nH]c3n2)c(OC)c1
- IC50 (second compound 0.0316 µM): 1890 nM
- IC50 (second compound 0.1 µM): 1930 nM
- IC50 (second compound 0.316 µM): 2000 nM
- IC50 (second compound 1 µM): 2200 nM
- IC50 (second compound 3.16 µM): 1330 nM
- IC50 (second compound 10 µM): 1020 nM
- viability, T/C [25]: 115%
- viability, T/C [26]: 105%
- viability, T/C [27]: 101%
- viability, T/C [28]: 83%
- viability, T/C [29]: 23.1%
- viability, T/C [30]: 12.2%
- viability, T/C [31]: 111%
- viability, T/C [32]: 97.8%
- viability, T/C [33]: 91.4%
- viability, T/C [34]: 79.7%
- viability, T/C [35]: 28.4%
- viability, T/C [36]: 7.48%
- viability, T/C [37]: 111%
- viability, T/C [38]: 105%
- viability, T/C [39]: 93%
- viability, T/C [40]: 66.6%
- viability, T/C [41]: 39%
- viability, T/C [42]: 4.74%
- viability, T/C [43]: 110%
- viability, T/C [44]: 81.9%
- viability, T/C [45]: 88.7%
- viability, T/C [46]: 65%
- viability, T/C [47]: 45.6%
- viability, T/C [48]: 6.12%
- viability, T/C [49]: 91.6%
- viability, T/C [50]: 86.5%
- viability, T/C [51]: 70.2%
- viability, T/C [52]: 55.1%
- viability, T/C [53]: 34.4%
- viability, T/C [54]: 4.38%
- viability, T/C [55]: 100%
- viability, T/C [56]: 88.9%
- viability, T/C [57]: 73.3%
- viability, T/C [58]: 50.5%
- viability, T/C [59]: 25.8%
- viability, T/C [60]: 4.15%
